Where “and” joins values, the source holds several entries; their conditions need not be identical. Identical values can stand only once.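 96-well plates; 48 h exposure; 5 concentrations. Endpoints by linear interpolation between flanking doses. Not reached: highest tested concentration assigned. Here, GI50 denotes the concentration required for 50% inhibition of growth. Definition used: TGI = concentration required for complete inhibition of growth.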
Experiments:
Test in all cases: DTP human tumour cell line panel, 48 h
[1] = tested on: HCC-2998 colon
[2] = tested on: NCI/ADR-RES ovarian
[3] = tested on: 786-0 renal
[4] = tested on: HL-60(TB) leukemia
[5] = tested on: SR leukemia
[6] = tested on: TK-10 renal
[7] = tested on: DU-145 prostate
[8] = tested on: U251 CNS
[9] = tested on: BT-549 breast
[10] = tested on: MOLT-4 leukemia

| Structure (SMILES) | GI50 [1] [µM] | TGI [1] [µM] | GI50 [2] [µM] | TGI [2] [µM] | GI50 [3] [µM] | TGI [3] [µM] | GI50 [4] [µM] | TGI [4] | GI50 [5] [µM] | TGI [5] | GI50 [6] [µM] | TGI [6] [µM] | GI50 [7] [µM] | TGI [7] [µM] | GI50 [8] [µM] | TGI [8] [µM] | GI50 [9] [µM] | TGI [9] [µM] | GI50 [10] [µM] | TGI [10] [µM] |
| --- | --- | --- | --- | --- | --- | --- | --- | --- | --- | --- | --- | --- | --- | --- | --- | --- | --- | --- | --- | --- |
| CCCCCCN(CCCCCC)CC(O)c1cccc2ccc(Cl)cc12 (stereo not given) | 2.96 | 8.04 | 11.4 | 25.1 | 10.9 | 23.7 | 9.63 | 24.6 µM | 3.55 | 9.85 µM | 12.4 | 25.4 | 11.6 | 25 | 10.5 | 23.5 | 14.1 | 28 | 7.81 | 26.1 |
| O=c1[nH]c(-c2ccccn2)nc2sc3c(c12)CCCCCC3 | 26.2 | > 100 | 0.961 | > 100 | 5.65 | > 100 | 3.39 | > 100 µM | 0.864 | > 100 µM | > 100 | > 100 | 6.73 | > 100 | 2.16 | > 100 | 5.62 | > 100 | 2.41 | > 100 |
| CC(=O)C1=C(O)/C(=C\c2ccco2)OC1=O | – | > 10 | – | > 10 | – | > 10 | – | > 10 µM | – | > 10 µM | – | > 10 | – | > 10 | – | > 10 | – | > 10 | – | > 10 |
| CCc1nc(N)nc(N)c1-c1ccc([N+](=O)[O-])c(Cl)c1 | – | > 100 | – | > 100 | – | > 100 | – | > 100 µM | – | > 100 µM | – | > 100 | – | > 100 | – | > 100 | – | > 100 | – | > 100 |
| CC(C)(C)c1ccc(S(=O)(=O)N[C@H]2CC[C@H]3[C@@H]4CCc5cc(O)ccc5[C@H]4CC[C@]23C)cc1 | 2.8 | 7.1 | 2.23 | 5.21 | 2.19 | 5.02 | 2.31 | 6.11 µM | 2.17 | 6.04 µM | 3.79 | 12.1 | 3.93 | 12.9 | 1.89 | 4.45 | 1.75 | 3.32 | 2.46 | 9.53 |
| CCCCCCCCCCCCCCCC(=O)OCC1OC(n2ccc(N)nc2=O)C(O)C1O (stereo not given) | – | > 100 | – | > 100 | – | > 50.5 | – | > 61.8 µM | – | 84.5 µM | – | > 100 | – | 67.2 | – | > 100 | – | > 100 | – | 44.8 |
| CCNC(=O)Oc1ccc(/C(=C(\C)c2ccc(Cl)cc2)c2ccc(OCCN3CCCCC3)cc2)cc1 | 3.53 | 13.4 | 5.59 | 22.7 | 1.79 | 3.43 | 1.99 | 4.47 µM | 2.98 | 9.23 µM | 19.5 | 34.6 | 10.9 | 23.7 | 4.19 | 14.5 | 4.27 | 16.6 | 3.27 | 10.6 |
| O=c1[nH]c2cc(O)ccc2n2cc3c(F)cccc3c12 | > 24.3 | > 100 | 0.698 | > 100 | 4.29 | > 100 | 6.55 | > 100 µM | 0.509 | 28.9 µM | > 100 | > 100 | 6.78 | > 100 | 2.49 | > 100 | > 100 | > 100 | 2.16 | > 100 |
| COc1cc(C2c3cc4c(cc3[C@@H](Nc3cccc(O)c3)C3COC(=O)[C@H]23)OCO4)cc(OC)c1O (stereo not given in full) | – | 8.81 | – | 21.5 | 0.98 | 5.36 | 0.23 | 0.802 µM and 2.73 µM | 0.0674 | 0.816 µM and 4.6 µM | – | 10.7 | – | 1.75 | 0.732 | 9.22 | – | 6.7 | 0.1 | 0.911 |
| C[C@]12CC[C@@H]3c4ccc(O)cc4CC[C@H]3[C@@H]1CC[C@@H]2NS(=O)(=O)c1ccc(-c2ccccc2)cc1 | 4.39 | > 100 | 3.87 | > 100 | 3.82 | 22.5 | 6.26 | 47.6 µM | 4.1 | 66.4 µM | 4.42 | 55.9 | 6.54 | > 100 | 4 | 32.6 | 2.99 | 11.7 | 3.47 | > 100 |
| O=c1c2cc(F)ccc2sc2c(NCCCN3CCCC3)nc3ccccc3c12 | 1.67 | 3.25 | 1.99 | 4.49 | 1.61 | 3.08 | 2.06 | 4.58 µM | 2.75 | 6.51 µM | 1.99 | 3.65 | 2.07 | 3.94 | 1.81 | 3.62 | 2.99 | 12 | 1.97 | 4.22 |
| CCCCCCCCCCCCNC(=O)[C@H]1CSC(c2ccc(OC)c(F)c2)N1 (stereo not given in full) | 1.75 | 3.33 | 1.61 | 3.52 | 1.63 | 3.08 | 1.63 | 3.59 µM | 0.324 | 1.59 µM | 1.95 | 3.48 | 0.888 | 2.46 | 1.89 | 3.66 | 0.37 | 0.912 | 0.214 | 0.469 |
